Target: human-KAT6A (MYST domain 507-778 aa) (Homo sapiens (Human), UniProt Q92794)
Experiment: KAT6A biochemical assay (TR-FRET)
Conditions: for IC50: TR-FRET, histone H4 peptide 200 nM, acetyl-CoA 600 nM, read-out: KAT6A IC50
Description: TR-FRET based methods were used for assaying compounds of the present invention for KAT6A enzyme inhibitory activity. TR-FRET is a homogeneous proximity assay where Europium-labelled anti-acetyl lysine antibody binds to the acetylated substrate labelled with biotin, which in turn binds to streptavidin-labelled APC fluorescence acceptor. Europium can transfer energy to APC in the complex and the interaction of two dye-labelled binding partners is detected by the energy transfer between a donor and an acceptor dye and the subsequent light emission by the acceptor dye. KAT6A transfer an acetyl group from acetyl CoA to lysine amino acids of histones/target proteins. […] The selected compound of the present invention and enzyme are incubated for 30 min on plate shaker at 300 rpm at 25° C. Next, 5 μL of substrate mix containing histone H4 peptide and acetyl-CoA in assay buffer is added to the plate. The final concentrations of H4 peptide and acetyl-CoA are 200 nM and 600 nM, respectively. Following 60 min reaction at 25° C. on plate shaker at 300 rpm, 5 μL of detection mix containing Europium-labelled anti-acetyl antibody and streptavidin-APC is added to the reaction wells. The plate is further incubated at 25° C. on shaker at 300 rpm and is read in TR-FRET mode (Ex:340 nm; Em: 615 nm and 665 nm) on a plate reader to achieve ˜5-7-fold activity. The percent inhibition was calculated from the ratio of the fluorescence (FL) intensities [(F665/F615)×10000) using the formula […]. IC50 values of the compounds were determined by fitting the dose-response data to sigmoidal curve fitting equation using Graph pad prism software V9.

Sequence of human-KAT6A (MYST domain 507-778 aa) (Q92794 507-778): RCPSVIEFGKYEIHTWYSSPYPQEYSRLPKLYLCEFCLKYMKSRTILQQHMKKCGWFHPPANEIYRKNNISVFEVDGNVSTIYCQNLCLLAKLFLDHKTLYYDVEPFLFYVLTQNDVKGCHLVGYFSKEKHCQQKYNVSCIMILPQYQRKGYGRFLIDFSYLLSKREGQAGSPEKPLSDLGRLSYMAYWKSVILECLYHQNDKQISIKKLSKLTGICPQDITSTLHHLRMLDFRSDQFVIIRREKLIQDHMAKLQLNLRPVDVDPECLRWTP

## COc1cc(C(=O)NS(=O)(=O)c2c(OC)ccc(C)c2OC)ccc1Cn1cccn1 [Compound 60, 4-((1H-pyrazol-1-yl)methyl)-N-((2,6-dimethoxy-3-methylphenyl)sulfonyl)-3-methoxybenzamide]
  IC50: 8 nM

## COc1cc(C(=O)NS(=O)(=O)c2c(OC)ccc(C3CC3)c2OC)ccc1Cn1cccn1 [Compound 61, 4-((1H-pyrazol-1-yl)methyl)-N-((3-cyclopropyl-2,6-dimethoxyphenyl)sulfonyl)-3-methoxybenzamide]
  IC50: 6 nM

## CCc1ccc(OC)c(S(=O)(=O)NC(=O)c2ccc(Cn3cccn3)c(OC)c2)c1OC [Compound 66, 4-((1H-pyrazol-1-yl)methyl)-N-((3-ethyl-2,6-dimethoxyphenyl)sulfonyl)-3-methoxybenzamide]
  IC50: 13 nM

## CCOc1cccc(OC)c1S(=O)(=O)NC(=O)c1ccc(Cn2cccn2)c(OC)c1 [Compound 67, 4-((1H-pyrazol-1-yl)methyl)-N-((2-ethoxy-6-methoxyphenyl)sulfonyl)-3-methoxybenzamide]
  IC50: 11 nM

## COc1cc(C(=O)NS(=O)(=O)c2c(OC)cccc2OCC(F)(F)F)ccc1Cn1cccn1 [Compound 68, 4-((1H-pyrazol-1-yl)methyl)-3-methoxy-N-((2-methoxy-6-(2,2,2-trifluoroethoxy)phenyl)sulfonyl)benzamide]
  IC50: 23 nM

## COc1cccc(OC)c1S(=O)(=O)NC(=O)c1ccc(Cn2cccn2)c(OC)c1F [Compound 69, 4-((1H-pyrazol-1-yl)methyl)-N-((2,6-dimethoxyphenyl)sulfonyl)-2-fluoro-3-methoxybenzamide]
  IC50: 114 nM

## COc1cc(C(=O)NS(=N)(=O)c2c(OC)cccc2OC)ccc1Cn1cccn1 (stereo not drawn) [Compound 71, 4-((1H-pyrazol-1-yl)methyl)-N-(2,6-dimethoxyphenylsulfonimidoyl)-3-methoxybenzamide]
  IC50: 34 nM

## COc1ccc(C(C)(C)C)cc1S(=O)(=O)NC(=O)c1ccc(Cn2cccn2)cn1 [Compound 201, 5-((1H-pyrazol-1-yl)methyl)-N-((5-(tert-butyl)-2-methoxyphenyl)sulfonyl)picolinamide]
  IC50: 731 nM

## COc1cc(C(=O)NS(=O)(=O)c2c(OC)cccc2OC)cnc1Cn1cccn1 [Compound 202, 6-((1H-pyrazol-1-yl)methyl)-N-((2,6-dimethoxyphenyl)sulfonyl)-5-methoxynicotinamide]
  IC50: 104 nM

## CCc1ccc(OC)c(S(=O)(=O)NC(=O)c2ccc(Cn3cccn3)c(OC)n2)c1 [Compound 204, 5-((1H-pyrazol-1-yl)methyl)-N-((5-ethyl-2-methoxyphenyl)sulfonyl)-6-methoxypicolinamide]
  IC50: 6 nM

## COc1ccc(C(C)(C)C)cc1S(=O)(=O)NC(=O)c1ccc(Cn2cccn2)c(OC)n1 [Compound 205, 5-((1H-pyrazol-1-yl)methyl)-N-((5-(tert-butyl)-2-methoxyphenyl)sulfonyl)-6-methoxypicolinamide]
  IC50: 8 nM

## COc1ccc(C2CC2)cc1S(=O)(=O)NC(=O)c1ccc(Cn2cccn2)c(OC)n1 [Compound 206, 5-((1H-pyrazol-1-yl)methyl)-N-((5-cyclopropyl-2-methoxyphenyl)sulfonyl)-6-methoxypicolinamide]
  IC50: 8 nM

## COc1ccc(C(F)(F)F)cc1S(=O)(=O)NC(=O)c1ccc(Cn2cccn2)c(OC)n1 [Compound 207, 5-((1H-pyrazol-1-yl)methyl)-6-methoxy-N-((2-methoxy-5-(trifluoromethyl)phenyl)sulfonyl)picolinamide]
  IC50: 10 nM

## COc1ccccc1S(=O)(=O)NC(=O)c1ccc(Cn2cccn2)c(OC)n1 [Compound 208, 5-((1H-pyrazol-1-yl)methyl)-6-methoxy-N-((2-methoxyphenyl)sulfonyl)picolinamide]
  IC50: 22 nM

## COc1cccc(OC)c1S(=O)(=O)NC(=O)c1ccc(Cn2cccn2)c(C)n1 [Compound 209, 5-((1H-pyrazol-1-yl)methyl)-N-((2,6-dimethoxyphenyl)sulfonyl)-6-methylpicolinamide]
  IC50: 71 nM

## CCc1ccc(OC)c(S(=O)(=O)NC(=O)c2cc(OC)c(Cn3cccn3)cn2)c1 [Compound 210, 5-((1H-pyrazol-1-yl)methyl)-N-((5-ethyl-2-methoxyphenyl)sulfonyl)-4-methoxypicolinamide]
  IC50: 64 nM

## COc1ccc2c(c1S(=O)(=O)NC(=O)c1ccc(Cn3cccn3)c(OC)n1)OCC2 [Compound 211, 5-((1H-pyrazol-1-yl)methyl)-6-methoxy-N-((6-methoxy-2,3-dihydrobenzofuran-7-yl)sulfonyl)picolinamide]
  IC50: 8 nM

## COc1cc(C(=O)NS(=O)(=O)c2c(OC)cccc2OC)ncc1Cn1cccn1 [Compound 212, 5-((1H-pyrazol-1-yl)methyl)-N-((2,6-dimethoxyphenyl)sulfonyl)-4-methoxypicolinamide]
  IC50: 140 nM

## COc1cc2c(cc1S(=O)(=O)NC(=O)c1ccc(Cn3cccn3)c(OC)n1)CCC2 [Compound 213, 5-((1H-pyrazol-1-yl)methyl)-6-methoxy-N-((6-methoxy-2,3-dihydro-1H-inden-5-yl)sulfonyl)picolinamide]
  IC50: 12 nM

## COc1ccc(C)cc1S(=O)(=O)NC(=O)c1ccc(Cn2cccn2)c(OC)n1 [Compound 214, 5-((1H-pyrazol-1-yl)methyl)-6-methoxy-N-((2-methoxy-5-methylphenyl)sulfonyl)picolinamide]
  IC50: 12 nM

## COc1cccc(OC)c1S(=O)(=O)NC(=O)c1ccc(Cn2cccn2)c(OC(F)F)n1 [Compound 215, 5-((1H-pyrazol-1-yl)methyl)-6-(difluoromethoxy)-N-((2,6-dimethoxyphenyl)sulfonyl)picolinamide]
@ 1 μM, reported where IC50 could not be determined, read-out: Percent inhibition at specific concentration (KAT6A)
  inhibition at 1 µM: 16%

## COc1ccc2c(c1S(=O)(=O)NC(=O)c1ccc(Cn3cccn3)c(OC)n1)CCC2 [Compound 216, 5-((1H-pyrazol-1-yl)methyl)-6-methoxy-N-((5-methoxy-2,3-dihydro-1H-inden-4-yl)sulfonyl)picolinamide]
  IC50: 12 nM

## COc1ccc2c(c1S(=O)(=O)NC(=O)c1ccc(Cn3cccn3)c(OC)n1)CCCC2 [Compound 217, 5-((1H-pyrazol-1-yl)methyl)-6-methoxy-N-((2-methoxy-5,6,7,8-tetrahydronaphthalen-1-yl)sulfonyl)picolinamide]
  IC50: 11 nM

## CCOc1cccc(OC)c1S(=O)(=O)NC(=O)c1ccc(Cn2cccn2)c(OC)n1 [Compound 218, 5-((1H-pyrazol-1-yl)methyl)-N-((2-ethoxy-6-methoxyphenyl)sulfonyl)-6-methoxypicolinamide]
  IC50: 8 nM

## COc1cccc(OC2CCC2)c1S(=O)(=O)NC(=O)c1ccc(Cn2cccn2)c(OC)n1 [Compound 219, 5-((1H-pyrazol-1-yl)methyl)-N-((2-cyclobutoxy-6-methoxyphenyl)sulfonyl)-6-methoxypicolinamide]
  IC50: 9 nM

## COc1cccc(OC(F)F)c1S(=O)(=O)NC(=O)c1ccc(Cn2cccn2)c(OC)n1 [Compound 220, 5-((1H-pyrazol-1-yl)methyl)-N-((2-(difluoromethoxy)-6-methoxyphenyl)sulfonyl)-6-methoxypicolinamide]
  IC50: 7 nM

## COc1cccc(OC(C)C)c1S(=O)(=O)NC(=O)c1ccc(Cn2cccn2)c(OC)n1 [Compound 221, 5-((1H-pyrazol-1-yl)methyl)-N-((2-isopropoxy-6-methoxyphenyl)sulfonyl)-6-methoxypicolinamide]
  IC50: 5 nM

## COc1ccc(C)c(OC)c1S(=O)(=O)NC(=O)c1ccc(Cn2cccn2)c(OC)n1 [Compound 222, 5-((1H-pyrazol-1-yl)methyl)-N-((2,6-dimethoxy-3-methylphenyl)sulfonyl)-6-methoxypicolinamide]
  IC50: 18 nM

## COc1ccc(C2CC2)c(OC)c1S(=O)(=O)NC(=O)c1ccc(Cn2cccn2)c(OC)n1 [Compound 223, 5-((1H-pyrazol-1-yl)methyl)-N-((3-cyclopropyl-2,6-dimethoxyphenyl)sulfonyl)-6-methoxypicolinamide]
  IC50: 17 nM

## COc1cc(OC)c(S(=O)(=O)NC(=O)c2ccc(Cn3cccn3)c(OC)n2)c(OC)c1 [Compound 224, 5-((1H-pyrazol-1-yl)methyl)-6-methoxy-N-((2,4,6-trimethoxyphenyl)sulfonyl)picolinamide]
  IC50: 11 nM

## CCc1ccc(OC)c(S(=O)(=O)NC(=O)c2ccc(Cn3cccn3)c(OC)n2)c1OC [Compound 225, 5-((1H-pyrazol-1-yl)methyl)-N-((3-ethyl-2,6-dimethoxyphenyl)sulfonyl)-6-methoxypicolinamide]
  IC50: 10 nM

## COc1ccc(S(=O)(=O)NC(=O)c2ccc(Cn3cccn3)c(OC)n2)c(OC)c1 [Compound 226, 5-((1H-pyrazol-1-yl)methyl)-N-((2,4-dimethoxyphenyl)sulfonyl)-6-methoxypicolinamide]
  IC50: 27 nM

## COc1cccc(OCC(F)(F)F)c1S(=O)(=O)NC(=O)c1ccc(Cn2cccn2)c(OC)n1 [Compound 227, 5-((1H-pyrazol-1-yl)methyl)-6-methoxy-N-((2-methoxy-6-(2,2,2-trifluoroethoxy)phenyl)sulfonyl)picolinamide]
  IC50: 11 nM
